Test results published in patent US10493070B2 (priority 2016, dated 2019).
Where two headings read alike, the source gives them in different places.

Test system: recombinant NL4-3 virus (NLRluc, Renilla luciferase in nef, Gag P373S)
Assay: HIV cell culture assay (Renilla luciferase reporter virus in MT-2 cells)
Format: cell-based
Conditions: Renilla
Experimental: MT-2 cells and 293T cells were obtained from the NIH AIDS Research and Reference Reagent Program. MT-2 cells were propagated in RPMI 1640 media supplemented with 10% heat inactivated fetal bovine serum, […]. The 293T cells were propagated in DMEM media supplemented with 10% heat inactivated fetal bovine serum (FBS), 100 units/ml penicillin G and 100 μg/ml streptomycin. The proviral DNA clone of NL4-3 was obtained from the NIH AIDS Research and Reference Reagent Program. A recombinant NL4-3 virus, in which a section of the nef gene from NL4-3 was replaced with the Renilla luciferase gene, was used as a reference virus. In addition, residue Gag P373 was converted to P373S. Briefly, the recombinant virus was prepared by transfection of the altered proviral clone of NL4-3. Transfections were performed in 293T cells using LipofectAMINE PLUS from Invitrogen (Carlsbad, Calif.), according to manufacturer's instruction. The virus was titered in MT-2 cells using luciferase enzyme activity as a marker. Luciferase was quantitated using the Dual Luciferase kit from Promega (Madison, Wis.), with modifications to the manufacturer's protocol. The diluted Passive Lysis solution was pre-mixed with the re-suspended Luciferase Assay Reagent and the re-suspended Stop & Glo Substrate (2:1:1 ratio). Fifty (50) μL of the mixture was added to each aspirated well on assay plates and luciferase activity was measured immediately on a Wallac TriLux (Perkin-Elmer). Antiviral activities of inhibitors toward the recombinant virus were quantified by measuring luciferase activity in cells infected for 4-5 days with NLRluc recombinants in the presence serial dilutions of the inhibitor. Table 16 is the key for the data in Table 17.

[1] = NL43, read-out: 10% FBS EC50, 10% FBS, class symbols A/B/C
[2] = NL43, read-out: 10% FBS EC50, 10% FBS, numeric values

| Compound | EC50 [1] | EC50 [2] |
| --- | --- | --- |
| CC1(C)C(c2ccc(C(=O)O)cc2)=CC[C@]2(C)CN(C(=O)c3cccc(CN4CCS(=O)(=O)CC4)c3)CC=C12 [Example 38] | > 3000 nM | – |
| CCOc1cccc2cc(C(=O)N3CC=C4C(C)(C)C(c5ccc(C(=O)O)cc5)=CC[C@]4(C)C3)oc12 [Example A46] | – | 1320 nM |
| CC1(C)C(c2ccc(C(=O)O)cc2)=CC[C@]2(C)CN(C(=O)CN3CCS(=O)(=O)CC3)CC=C12 [Example 37] | > 3000 nM | – |
| CC(C)(C)OC(=O)N1CCC(C(=O)N2CC=C3C(C)(C)C(c4ccc(C(=O)O)cc4)=CC[C@]3(C)C2)(C2CCCCC2)CC1 [Example 50] | – | 290 nM |
| CC1(C)C(c2ccc(C(=O)O)cc2)=CC[C@]2(C)CN(C3CCC(CN)(c4ccccc4)CC3)CC=C12 (stereo partly drawn) [Example C3, (S)-4-(2-(4-(aminomethyl)-4-phenylcyclohexyl)-5,5,8a-trimethyl-1,2,3,5,8,8a-hexahydroisoquinolin-6-yl)benzoic acid] | – | 150 nM |
| CC1(C)C(c2ccc(C(=O)O)cc2)=CC[C@]2(C)CN(C(=O)c3ccc4[nH]nnc4c3)CC=C12 [Example 42] | > 3000 nM | – |
| CC1(C)C(c2ccc(C(=O)O)cc2)=CC[C@]2(C)CN(C(=O)c3ccccc3C(N)=O)CC=C12 [Example 20] | > 3000 nM | – |
| COc1ccc(S(=O)(=O)Cc2ccccc2)cc1C(=O)N1CC=C2C(C)(C)C(c3ccc(C(=O)O)cc3)=CC[C@]2(C)C1 [Example 32] | – | 660 nM |
| CC1(C)C(c2ccc(C(=O)O)cc2)=CC[C@]2(C)CN(CCN3CCS(=O)(=O)CC3)CC=C12 [Example 79] | > 3000 nM | – |
| COc1ccnc(N2CC=C3C(C)(C)C(c4ccc(C(=O)O)cc4)=CC[C@]3(C)C2)n1 [Example B13] | – | 2700 nM |
| CC1(C)C(c2ccc(C(=O)O)cc2)=CC[C@]2(C)CN(C(=O)c3cccc(F)c3)CC=C12 [Example 2] | > 3000 nM | – |
| CC1(C)C(c2ccc(C(=O)O)cc2)=CC[C@]2(C)CN(C(=O)c3ccccc3-c3nc4ccccc4n3C3CCN(Cc4ccccc4)CC3)CC=C12 [Example A280] | – | 550 nM |
| CC1(C)C(c2ccc(C(=O)O)cc2)=CC[C@]2(C)CN(C(=O)C(=O)N3CCC[C@H]3C(=O)NCCN3CCS(=O)(=O)CC3)CC[C@@H]12 [Example C1, 4-((4aS,8aS)-2-(2-((S)-2-((2-(1,1-dioxidothiomorpholino)ethyl)carbamoyl)pyrrolidin-1-yl)-2-oxoacetyl)-5,5,8a-trimethyl-1,2,3,4,4a,5,8,8a-octahydroisoquinolin-6-yl)benzoic acid] | > 3000 nM | – |
| CC1(C)C(c2ccc(C(=O)O)cc2)=CC[C@]2(C)CN(C(=O)c3ccccc3-c3nc4ccccc4o3)CC=C12 [Example A325] | – | 235 nM |
| CC1(C)C(c2ccc(C(=O)O)cc2)=CC[C@]2(C)CN(C(=O)C(=O)N3CC=C4C(C)(C)C(c5ccc(C(=O)O)cc5)=CC[C@]4(C)C3)CC=C12 [Example 9] | > 3000 nM | – |
| CC1(C)C(c2ccc(C(=O)O)cc2)=CC[C@]2(C)CN(C3CCC(CN(CCN4CCS(=O)(=O)CC4)CCN4CCS(=O)(=O)CC4)(c4ccccc4)CC3)CC=C12 (stereo partly drawn) [Example C4, (S)-4-(2-(4-((bis(2-(1,1-dioxidothiomorpholino)ethyl)amino)methyl)-4-phenylcyclohexyl)-5,5,8a-trimethyl-1,2,3,5,8,8a-hexahydroisoquinolin-6-yl)benzoic acid] | – | > 3000 nM |
| CC1(C)C(c2ccc(C(=O)O)cc2)=CC[C@]2(C)CN(C(=O)c3ccccc3-c3nc4cc(Cl)c(Cl)cc4[nH]3)CC=C12 [Example A265] | < 500 nM | – |
| Cc1ccc2nc(-c3ccccc3C(=O)N3CC=C4C(C)(C)C(c5ccc(C(=O)O)cc5)=CC[C@]4(C)C3)oc2c1 [Example A326] | – | 257 nM |
| CC1(C)C(c2ccc(C(=O)O)cc2)=CC[C@]2(C)CN(C(=O)C3(Cc4ccccc4)CCNCC3)CC=C12 [Example 55] | – | 3040 nM |
| CC1(C)C(c2ccc(C(=O)O)cc2)=CC[C@]2(C)CN(C(=O)c3ccc(C(N)=O)cc3)CC=C12 [Example 22] | > 3000 nM | – |
| CC1(C)C(c2ccc(C(=O)O)cc2)=CC[C@]2(C)CN(C(=O)c3ccccc3-c3nc4cc(C(=O)c5ccccc5)ccc4[nH]3)CC=C12 [Example A281] | – | 950 nM |
| Cc1cc(Cl)cc2[nH]c(-c3ccccc3C(=O)N3CC=C4C(C)(C)C(c5ccc(C(=O)O)cc5)=CC[C@]4(C)C3)nc12 [Example A271] | < 500 nM | – |
| CC(C)C[C@H](NC(=O)OC(C)(C)C)C(=O)N1CCC(C(=O)N2CC[C@H]3C(C)(C)[C@@H](c4ccc(C(=O)O)cc4)CC[C@]3(C)C2)(c2ccccc2)CC1 [Example 87] | – | 101 nM |
| CC1(C)C(c2ccc(C(=O)O)cc2)=CC[C@]2(C)CN(C(=O)c3ccccc3C(=O)N3CC=C4C(C)(C)C(c5ccc(C(=O)O)cc5)=CC[C@]4(C)C3)CC=C12 [Example 60] | 500 to 3000 nM | – |

| Compound | EC50 [1] | EC50 [2] |
| --- | --- | --- |
| CC1(C)C(c2ccc(C(=O)O)cc2)=CC[C@]2(C)CN(C(=O)c3ccccc3-c3nc4c(F)cccc4[nH]3)CC=C12 [Example A266] | < 500 nM | – |
| CC1(C)C(c2ccc(C(=O)O)cc2)=CC[C@]2(C)CN(c3ncc(Br)s3)CC=C12 [Example 77] | > 3000 nM | – |
| CC1(C)C(c2ccc(C(=O)O)cc2)=CC[C@]2(C)CN(C(=O)c3cccc(C(=O)NCCCN4CCS(=O)(=O)CC4)c3)CC=C12 [Example 66] | > 3000 nM | – |
| CC1(C)C(c2ccc(C(=O)O)cc2)=CC[C@]2(C)CN(C(=O)c3ccccc3-c3nc4cc5c(cc4[nH]3)OCO5)CC=C12 [Example A298] | – | 60 nM |
| CC(C)(C)OC(=O)N[C@H](C(=O)N1CCC(C(=O)N2CC=C3C(C)(C)C(c4ccc(C(=O)O)cc4)=CC[C@]3(C)C2)(c2ccccc2)CC1)C(C)(C)C [Example A219] | – | 150 nM |
| Cn1c(-c2ccccc2C(=O)N2CC=C3C(C)(C)C(c4ccc(C(=O)O)cc4)=CC[C@]3(C)C2)nc2ccccc21 [Example A274] | > 3000 nM | – |
| CC1(C)C(c2ccc(C(=O)O)cc2)=CC[C@]2(C)CN(C(=O)c3cc(F)cc(F)c3)CC=C12 [Example 8] | > 3000 nM | – |
| CC1(C)C(c2ccc(C(=O)O)cc2)=CC[C@]2(C)CN(C(=O)C(=O)N3CCC[C@H]3C(=O)NCCCN3CCS(=O)(=O)CC3)CC[C@@H]12 [Example C2, 4-((4aS,8aS)-2-(2-((S)-2-((3-(1,1-dioxidothiomorpholino)propyl)carbamoyl)pyrrolidin-1-yl)-2-oxoacetyl)-5,5,8a-trimethyl-1,2,3,4,4a,5,8,8a-octahydroisoquinolin-6-yl)benzoic acid] | > 3000 nM | – |
| CC1(C)C(c2ccc(C(=O)O)cc2)=CC[C@]2(C)CN(C(=O)c3ccccc3-c3nc4cc(Cl)c(Cl)cc4n3CCc3ccccc3)CC=C12 [Example A277] | – | 2250 nM |
| CC1(C)C(c2ccc(C(=O)O)cc2)=CC[C@]2(C)CN(C(=O)c3ccccc3-c3nc4cc(Br)c(Br)cc4[nH]3)CC=C12 [Example 99, (S)-4-(2-(2-(5,6-dibromo-1H-benzo[d]imidazol-2-yl)benzoyl)-5,5,8a-trimethyl-1,2,3,5,8,8a-hexahydroisoquinolin-6-yl)benzoic acid] | – | 16 nM |
| C[C@@H](OC(C)(C)C)[C@H](NC(=O)OC(C)(C)C)C(=O)N1CCC(C(=O)N2CC=C3C(C)(C)C(c4ccc(C(=O)O)cc4)=CC[C@]3(C)C2)(c2ccccc2)CC1 [Example A185] | – | 123 nM |
| CC1(C)C(c2ccc(C(=O)O)cc2)=CC[C@]2(C)CN(C(=O)c3ccccc3-c3nc4cc(Cl)ccc4o3)CC=C12 [Example A332] | < 500 nM | – |
| CC1(C)C(c2ccc(C(=O)O)cc2)=CC[C@]2(C)CN(c3cc(O)cc(-c4nnn(CCN5CCS(=O)(=O)CC5)n4)c3)CC=C12 [Example B9] | – | 1170 nM |
| CCOC(=O)c1cnc(N2CC=C3C(C)(C)C(c4ccc(C(=O)O)cc4)=CC[C@]3(C)C2)s1 [Example B14] | 500 to 3000 nM | – |
| COc1cccc(C(=O)N2CC=C3C(C)(C)C(c4ccc(C(=O)O)cc4)=CC[C@]3(C)C2)c1 [Example 18] | > 3000 nM | – |
| CC1(C)C(c2ccc(C(=O)O)cc2)=CC[C@]2(C)CN(C(=O)c3ccccc3-c3nc4cc(C(=O)O)ccc4n3Cc3cccnc3)CC=C12 [Example A293] | > 3000 nM | – |
| CC1(C)C(c2ccc(C(=O)O)cc2)=CC[C@]2(C)CN(c3ccc(-c4nnn(CCN5CCS(=O)(=O)CC5)n4)cc3)CC=C12 [Example B5] | > 3000 nM | – |
| CC(C)C[C@@H](N)C(=O)N1CCC(C(=O)N2CC=C3C(C)(C)C(c4ccc(C(=O)O)cc4)=CC[C@]3(C)C2)(c2ccccc2)CC1 [Example 57] | – | 148 nM |
| CC(C)(C)OC(=O)N[C@H]1CC[C@@H](C(=O)N2CC=C3C(C)(C)C(c4ccc(C(=O)O)cc4)=CC[C@]3(C)C2)CC1 [Example 16] | > 3000 nM | – |
| CN(C)c1ccccc1C(=O)N1CC=C2C(C)(C)C(c3ccc(C(=O)O)cc3)=CC[C@]2(C)C1 [Example 23] | > 3000 nM | – |
| CC1(C)C(c2ccc(C(=O)O)cc2)=CC[C@]2(C)CN(C(=O)c3ccccc3-c3nc4c(Cl)cccc4[nH]3)CC=C12 [Example A270] | – | 14 nM |
| CC1(C)C(c2ccc(C(=O)O)cc2)=CC[C@]2(C)CN(C(=O)c3ccccc3-c3nc4ccccc4n3CCN3CCS(=O)(=O)CC3)CC=C12 [Example 81] | 500 to 3000 nM | – |
| CC1(C)C(c2ccc(C(=O)O)cc2)=CC[C@]2(C)CN(C(=O)c3ccc(C(=O)NCCCN4CCS(=O)(=O)CC4)s3)CC=C12 [Example 72] | > 3000 nM | – |
